This is an account of results in patent US8623853B2, “Treatment of cancers characterized by chromosomal rearrangement of the NUT gene” (The Brigham and Women's Hospital, Inc., priority 2008, dated 2014).

Each structure is given as a SMILES string.

The conditions of series [1]: pharmacologically achievable range; cited from earlier work.
The next series relates to NMC cell lines. Kind of series: SAHA treatment of five NMC cell lines. The class given is cell-based. To be noted: pharmacologic doses.
A further series deals with NMC (TC797) cells. Put plainly: High-content 384-well assay of proliferation, histone acetylation and keratin expression adapted to NMC culture. The class given is cell-based. The method, then: A cell based approach was developed for identifying potent and selective HDAC inhibitors. Nuclear acetylation correlates with inhibition of class I deacetylases such as HDAC1 and HDAC2. An automated epiflourescent assay was therefore developed which is measures histone hyperacetylation. Cells were seeded in 384-well plate format (500 cells/well) and treated with compound. They were then fixed and stained with: a) Hoechst (nuclei); b) primary anti-AcHistone polyclonal Ab; c) anti-Keratin monoclonal antibody; and d) compatible flurophore-conjugated secondary antibodies. After automated image acquisition, a custom analysis program was applied that identifies and masks cells based on nuclear intensity (Hoechst) and then derives quantitative fluorescent data from the FITC (AcHistone) image. Subsequent secondary masks were generated using cytosolic intensity.
We have performed studies of HDAC inhibitor effects on NMC cells in culture using an adaptation of the assay described above. […] In a first attempt at multiplexed detection and quantification of effects on cell proliferation, histone acetylation, and keratin protein expression, we have witnessed clear, dose-response activity of SAHA in the pharmacologically achievable range (Cmax approximately 2 μM).

A further series has as its system NMC cells. Kind of series: TSA dose- and time-ranging studies in cultured NMC cells (immunofluorescence, bright-field microscopy, keratin immunohistochemistry). In kind it is cell-based. The procedure: Studies aimed at testing the hypothesis of HDAC inhibitor therapy in NMC have been conducted using trichostatin A (TSA), and vorinostat (SAHA, Zolinza®). Both of these compounds are regarded as non-selective for class I and II deacetylases and bind HDAC proteins by chelating the active site zinc atom with a hydroxamic acid feature. NMC cells cultured in vitro were treated with TSA in dose- and time-ranging studies. […] With further drug exposure, a differentiation phenotype was observed by bright-field microscopy and by immunohistochemistry for the epithelial differentiation-associated protein, keratin.

In the case of `O=C(CCCCCCC(=O)Nc1ccccc1)NO` [SAHA, suberoylanilide hydroxamic acid], the Cmax in series [1] is about 2000 nM. Also, in the series on NMC cell lines, the differentiation entry is “resulted in differentiation” and the growth result is listed as “arrested growth”. The histone acetylation entry with NMC (TC797) cells (dose-ranging, qualitative in images) was “increased histone acetylation”. In addition, in the series on NMC (TC797) cells (multiplexed detection), the cell proliferation result is “reduction in cell proliferation” and the keratin protein content entry is “induction of increased keratin protein content”.

For `CC(/C=C/C(=O)NO)=C\[C@@H](C)C(=O)c1ccc(N(C)C)cc1` [TSA, trichostatin A], the “differentiation by brightfield microscopy” value in the series with NMC cells (TSA 25 nM, within 24 hours) is on record as “rapidly differentiate”. In the series with NMC cells (immunofluorescence microscopy), the “distribution of BRD-NUT and acetylation marks” value was “redistribution of both BRD-NUT and acetylation marks from nuclear speckles to a diffuse pattern”. Moreover, in the series on NMC cells (immunofluorescence microscopy, dose- and time-ranging), the histone acetylation entry was “increase in histone acetylation with increasing dose and time of exposure”. Further, the cytoplasmic keratin staining entry in the series with NMC cells (immunohistochemistry) is “increases in cytoplasmic keratin staining”.
